In article PMC4601023, “Novel anticancer agent, SQAP, binds to focal adhesion kinase and modulates its activity” (Scientific Reports, 2015):

How the values were obtained:
breast CSCs = system: breast CSCs; parameters: method as in PMID 25187396; details: in combination with radiotherapy; cited from earlier work
[1] = system: TSP-1 expression in endothelial cells; parameters: method as in PMID 14739779; details: cited from earlier work
[2] = system: FAK phosphorylation (Y397, Y925) in HUVEC cells; assay: FAK phosphorylation level in HUVEC, Western blotting; type: cell-based, human; details: VEGF 50 ng/mL, 1 h
Experimental: HUVEC cells were incubated for 20 h in serum-free medium in 60 mm dishes. SQAP, SQMG or SQP was added and incubated for 30 min followed by addition of 50 ng/mL VEGF (RD systems, Minneapolis, MN. USA) and incubation for another 30 min. FAK phosphorylation level was analyzed by Western blotting as described in the next section.
(§1) Cells were harvested and solubilized in RIPA buffer (20 mM Tris-HCl, pH 7.5, 1% Sodium deoxycholate, 150 mM NaCl, 5 mM EDTA, 1% Triton X-100, 0.1% SDS, 0.1%, 1 mM PMSF, 1 mM vanadate and 1 μg/mL leupeptin). Protein quantification was determined using the DC protein assay kit (Bio-Rad, Hercules, CA, USA). A total of 15 μg of each protein sample were separated by SDS–PAGE gels and blotted onto polyvinylidene difluoride membranes (Merck, Kenilworth, NJ, US). After blocking for 1 h with Blocking-One (Nacalai Tesque, Kyoto, Japan), proteins were detected by incubating the membranes with the primary antibody at 4 °C overnight (anti-Y397 2:2000, anti-Y925 5:2000 and anti-FAK 0.5:2000) followed by incubation with horseradish peroxidase-conjugated secondary antibodies at room temperature for 1 h (anti-mouse 0.5:2000 and anti-rabbit 0.4:2000).

[3] = system: Akt phosphorylation at S473 in HUVEC; assay: Akt phosphorylation in HUVEC, Western blotting; type: cell-based, human; details: treated for 21 h, 10 µM
Text: Furthermore, we looked at FAK signaling pathway to validate our results. Paxillin binds to FAK 919–938 residues which is a sequence contained within the region where SQAP is predicted to bind. Binding between paxillin and FAK results in paxillin phosphorylation at Y118[35][36]. Thus, we examined paxillin phosphorylation. […] Additionally, we studied Akt phosphorylation at S473 on account of FAK is a known factor in control of Akt activity. We observed that Akt phosphorylation was diminished when treated with SQAP or SQMG for 21 h (see Supplementary Fig. S3).
as §1, with “0.4:2000). […]” for “0.4:2000).”

[4] = system: lung and colon adenocarcinomas; parameters: method as in PMID 9020475, PMID 21115885; details: transplanted in nude mice, in combination with X-irradiation; cited from earlier work
VEGF = VEGF (Homo sapiens, UniProt P15692); details: cited from earlier work
Sequence of VEGF (P15692 whole entry, species assumed): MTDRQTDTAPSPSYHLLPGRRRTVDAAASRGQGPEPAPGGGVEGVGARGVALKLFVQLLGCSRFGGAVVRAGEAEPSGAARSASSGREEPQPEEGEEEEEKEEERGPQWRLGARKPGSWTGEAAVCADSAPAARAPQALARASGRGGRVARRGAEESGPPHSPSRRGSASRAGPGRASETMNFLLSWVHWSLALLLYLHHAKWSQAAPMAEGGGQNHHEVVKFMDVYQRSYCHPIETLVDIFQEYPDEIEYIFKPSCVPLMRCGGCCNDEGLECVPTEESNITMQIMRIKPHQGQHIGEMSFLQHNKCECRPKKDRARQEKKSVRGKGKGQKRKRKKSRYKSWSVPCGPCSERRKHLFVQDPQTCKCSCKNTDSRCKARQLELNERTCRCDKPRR

TSP-1 gene = system: TSP-1 gene; parameters: method as in PMID 22587436; details: diverse cell lines including A549 and HUVEC; cited from earlier work
Tie2 gene = system: Tie2 gene; parameters: method as in PMID 18380795; details: cited from earlier work
SCP-2 (400–547) = target: T1, SCP-2 (400–547) (Homo sapiens, UniProt P22307); assay: SPR analysis, immobilized His-tagged SCP-2 (400-547); type: binding
T1 construct: DNA encoding SCP-2 (400–547) was amplified; made in house; host or cells: E. coli Rosetta 2 (DE3) pLysS
T1 sequence (P22307 400-547): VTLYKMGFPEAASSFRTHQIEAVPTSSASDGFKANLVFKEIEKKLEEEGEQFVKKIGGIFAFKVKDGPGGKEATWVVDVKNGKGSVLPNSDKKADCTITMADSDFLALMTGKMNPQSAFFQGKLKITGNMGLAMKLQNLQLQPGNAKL
Text: (§2) SPR was utilized as an independent confirmation of the kinetic parameters between SQAP and the putative binding proteins. […] The recombinant proteins were then expressed in Escherichia coli and purified to homogeneity. In addition, full length, His-tagged ADRM1 and GST-tagged HR23B (GST-HR23B) were also used. The proteins were first immobilized on a CM5 sensor chip of the SPR biosensor (Biacore 3000). For GST-HR23B analysis, a GST protein was additionally immobilized and used as a control in order to eliminate possible nonspecific binding of SQAP. SQAP samples at different concentrations were then injected over the proteins immobilized on the sensor chip. As a negative control we used sulfoquynovosylpropanediol (SQP), which lacks the fatty acid moiety of SQAP (Fig. 1). […]
(§3) The binding kinetics of SCP-2, MFE-2, ADRM1, HR23B and FAK with SQAP and SQP were analyzed on a Biacore 3000 instrument (GE Healthcare, Little Chalfont, UK). […] The buffer of purified peptides was exchanged to HBS-P (150 mM NaCl, 0.005% Surfactant P20, 10 mM HEPES-NaOH pH 7.4) using a PD 10 column (GE Healthcare, Little Chalfont, UK) and the concentrations were quantified using DC protein assay kit (Bio-Rad Laboratories, Hercules, CA, USA). […] Kinetic parameters were determined by analyzing the data using BIAevaluation 4.1 software (GE Healthcare, Little Chalfont, UK).

MFE-2 (598–736) = target: T2, MFE-2 (598–736) (Homo sapiens, UniProt P51659); assay: SPR analysis, immobilized His-tagged MFE-2 (598-736); type: binding
T2 construct: For MFE-2 (598–736) DNA was amplified; made in house; host or cells: E. coli Rosetta 2 (DE3) pLysS
T2 sequence (P51659 598-736): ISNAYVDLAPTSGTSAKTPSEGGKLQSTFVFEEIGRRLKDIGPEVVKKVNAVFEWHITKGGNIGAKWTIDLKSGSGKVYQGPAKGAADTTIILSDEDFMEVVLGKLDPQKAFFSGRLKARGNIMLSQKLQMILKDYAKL
Text: as §2, §3

ADRM1 = target: T3, ADRM1 (Homo sapiens, UniProt Q16186); assay: SPR analysis, immobilized full length His-ADRM1; type: binding
T3 construct: ADRM1 and HR23B human full length proteins were purchased; His-tag; purchased ATgen (Gyeonggi-do, Korea)
T3 sequence (Q16186 whole entry): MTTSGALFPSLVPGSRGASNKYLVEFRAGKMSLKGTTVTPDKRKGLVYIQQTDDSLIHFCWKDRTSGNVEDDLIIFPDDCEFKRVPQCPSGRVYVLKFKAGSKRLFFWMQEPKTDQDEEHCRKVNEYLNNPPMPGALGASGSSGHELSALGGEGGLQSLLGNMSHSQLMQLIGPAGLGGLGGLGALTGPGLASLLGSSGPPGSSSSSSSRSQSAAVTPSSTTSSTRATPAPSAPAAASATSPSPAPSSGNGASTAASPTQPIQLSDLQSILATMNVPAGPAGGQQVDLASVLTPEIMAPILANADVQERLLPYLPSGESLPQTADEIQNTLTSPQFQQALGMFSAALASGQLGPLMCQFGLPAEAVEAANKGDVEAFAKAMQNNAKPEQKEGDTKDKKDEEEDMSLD
Text: as §2, §3

HR23B = target: T4, HR23B (Homo sapiens, UniProt P54727); assay: SPR analysis, immobilized GST-HR23B (GST control subtracted); type: binding; details: no kinetic analysis
T4 construct: ADRM1 and HR23B human full length proteins were purchased; purchased Abnova (Taipei, Taiwan)
T4 sequence (P54727 whole entry): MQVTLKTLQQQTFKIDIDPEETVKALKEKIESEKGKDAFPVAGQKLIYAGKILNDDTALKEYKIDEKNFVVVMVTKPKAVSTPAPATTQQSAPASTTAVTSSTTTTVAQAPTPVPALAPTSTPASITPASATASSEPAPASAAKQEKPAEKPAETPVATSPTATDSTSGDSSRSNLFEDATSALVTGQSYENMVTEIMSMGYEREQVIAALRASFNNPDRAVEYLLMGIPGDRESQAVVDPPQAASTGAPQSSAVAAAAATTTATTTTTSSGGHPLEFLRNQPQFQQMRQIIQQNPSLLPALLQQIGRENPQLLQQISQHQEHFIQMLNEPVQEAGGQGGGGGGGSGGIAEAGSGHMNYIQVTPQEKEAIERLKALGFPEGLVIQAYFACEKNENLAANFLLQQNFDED
Text: as §2, §3

FAK (910–1052) = target: T5, FAK (910–1052) (Homo sapiens, UniProt Q05397); assay: SPR analysis, immobilized His-tagged FAK (910-1052); type: binding
T5 construct: For FAK (910–1052) DNA was amplified; made in house; host or cells: E. coli BL21 (DE3)
T5 sequence (Q05397 910-1052): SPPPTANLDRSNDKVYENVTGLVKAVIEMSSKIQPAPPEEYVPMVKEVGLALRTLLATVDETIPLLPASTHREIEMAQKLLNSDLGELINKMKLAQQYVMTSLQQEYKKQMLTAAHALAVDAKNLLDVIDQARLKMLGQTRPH
Text: as §2, §3

[5] = system: FAK phosphorylation (Y397, Y925) in A549 cells; assay: FAK phosphorylation level in A549, Western blotting; type: cell-based, human; details: A549, fibronectin 10 μg/mL, 1 h treatment
Experimental: A549 cells were incubated in a serum-free medium for 48 h in 60 mm dishes (IWAKI, Tokyo, Japan). Then 10 μM SQAP, SQMG or SQP was added and incubated for 30 min followed by addition of fibronectin 10 μg/mL (Sigma, St. Louis, MI, USA) and incubation for another 30 min. FAK phosphorylation level was analyzed by Western blotting as described in the next section.
as §1

Compound: CS(=O)(=O)c1cccc(CNc2nc(Nc3ccc4c(c3)CCC(=O)N4)ncc2C(F)(F)F)c1 [PF573228]
- formation of clumps of breast CSCs (breast CSCs): block the formation of clumps

Compound: O=c1cc(N2CCOCC2)oc2c(-c3ccccc3)cccc12 [LY 294002]
- TSP-1 expression levels [1]: upregulated

Compound: sulfoquinovosyl monoacylglyceride [SQMG]
- phosphorylation level of FAK at Y397 and at Y925 after VEGF stimulation [2]: can inhibit
- Akt phosphorylation at S473 [3]: diminished
- tumor growth [4]: significantly inhibited
- binding to VEGF (VEGF): bind to VEGF
- TSP-1 gene expression (TSP-1 gene): upregulation
- Tie2 gene expression (Tie2 gene): downregulation

Compound: O=S(=O)(O)C[C@H]1O[C@H](OCCCO)[C@H](O)[C@@H](O)[C@@H]1O [SQP, sulfoquynovosylpropanediol, reference compound]
- binding to SCP-2 (SPR response) (SCP-2 (400–547)): neither bound
- binding to MFE-2 (SPR response) (MFE-2 (598–736)): neither bound
- binding to ADRM1 (SPR response) (ADRM1): neither bound
- binding to HR23B (SPR response) (HR23B): neither bound
- binding to FAK (SPR response) (FAK (910–1052)): neither bound
- phosphorylation of FAK at Y397 and Y925 [5]: failed to inhibit
